{"source": "patent US20230173083A1", "about": "“ALBUMIN-BINDING PRODRUG FOR PREVENTING OR TREATING CANCER AND PHARMACEUTICAL COMPOSITION INCLUDING THE SAME” (KOREA INSTITUTE OF SCIENCE AND TECHNOLOGY, priority 2021, published 2023)", "key": {"[1]": {"target": "HSA (Homo sapiens, UniProt P02768)", "test": "Formation of albumin-prodrug conjugate with HSA (SDS-PAGE, MALDI-TOF, RP-HPLC)", "assay_type": "binding", "conditions": "for formation of conjugate with HSA (SDS-PAGE band shift to 50-75 kDa): 1% HSA in PBS", "method": "(§1) To this end, a PBS solution (1 ml) containing 1% albumin (HSA, MSA or BSA) or 1% blocked albumin (blocked HSA, MSA or BSA) was added to 1 mg of the prodrug (Al-ProD) synthesized in Example 1 and incubated at room temperature for various times (0 h, 5 min, and 1 h). After completion of the incubation, samples were analyzed via SDS-PAGE and MALDI-TOF mass spectrometry.\n(§2) τ-maleimido butyric acid was added to 1% albumin (HSA, MSA or BSA) for 1 h to block the thiol group of the albumin. In the “Blocking” row in the table of FIG. 5, the plus signs (+) represent the use of blocked albumin."}, "[2]": {"target": "MSA (Mus musculus, UniProt P07724)", "sequence (P07724 25-608)": "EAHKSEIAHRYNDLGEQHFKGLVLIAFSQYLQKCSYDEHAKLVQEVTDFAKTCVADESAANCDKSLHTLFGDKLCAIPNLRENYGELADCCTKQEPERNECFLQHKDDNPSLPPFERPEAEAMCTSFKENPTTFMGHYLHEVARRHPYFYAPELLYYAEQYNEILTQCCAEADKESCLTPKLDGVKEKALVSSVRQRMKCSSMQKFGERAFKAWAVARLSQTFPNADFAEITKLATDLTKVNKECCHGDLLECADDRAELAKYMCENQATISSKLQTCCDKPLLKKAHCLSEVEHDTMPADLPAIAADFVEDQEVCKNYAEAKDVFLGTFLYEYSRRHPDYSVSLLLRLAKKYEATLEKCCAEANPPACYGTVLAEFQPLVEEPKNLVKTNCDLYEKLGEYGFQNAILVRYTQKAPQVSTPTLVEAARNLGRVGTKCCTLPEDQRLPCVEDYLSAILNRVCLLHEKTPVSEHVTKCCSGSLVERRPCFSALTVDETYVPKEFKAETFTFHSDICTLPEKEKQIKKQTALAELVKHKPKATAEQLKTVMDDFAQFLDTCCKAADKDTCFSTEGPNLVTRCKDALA", "test": "Formation of albumin-prodrug conjugate with MSA (SDS-PAGE)", "assay_type": "binding", "conditions": "1 h; for formation of conjugate with MSA (SDS-PAGE band shift to 50-75 kDa): 1% MSA in PBS, room temperature", "method": "as §1, §2"}, "[3]": {"target": "BSA (Bos taurus, UniProt P02769)", "sequence (P02769 25-607)": "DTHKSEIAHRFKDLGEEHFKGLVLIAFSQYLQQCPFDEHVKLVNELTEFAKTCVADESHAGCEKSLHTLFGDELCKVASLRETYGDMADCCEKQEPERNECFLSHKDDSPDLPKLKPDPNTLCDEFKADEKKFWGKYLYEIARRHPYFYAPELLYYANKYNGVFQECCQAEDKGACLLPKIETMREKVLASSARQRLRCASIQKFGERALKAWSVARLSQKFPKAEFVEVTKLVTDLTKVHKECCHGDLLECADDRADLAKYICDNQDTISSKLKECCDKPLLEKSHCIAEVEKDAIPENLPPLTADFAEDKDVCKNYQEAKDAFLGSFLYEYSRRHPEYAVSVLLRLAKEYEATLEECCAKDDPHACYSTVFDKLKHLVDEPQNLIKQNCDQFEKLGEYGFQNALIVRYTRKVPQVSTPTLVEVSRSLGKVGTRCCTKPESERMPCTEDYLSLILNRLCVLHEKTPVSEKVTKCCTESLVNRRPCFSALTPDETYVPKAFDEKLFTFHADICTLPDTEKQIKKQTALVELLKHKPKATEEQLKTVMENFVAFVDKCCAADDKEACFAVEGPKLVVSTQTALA", "test": "Formation of albumin-prodrug conjugate with BSA (SDS-PAGE)", "assay_type": "binding, bovine", "conditions": "1 h; for formation of conjugate with BSA (SDS-PAGE band shift to 50-75 kDa): 1% BSA in PBS, room temperature", "method": "as §1, §2"}, "[4]": {"test": "Pharmacokinetics after intravenous administration to cancer animal models", "assay_type": "in vivo, BALB/c nude mice", "method": "(§3) All animal experiments were conducted in accordance with the guidelines approved by the Institutional Animal Care and Use Committee of Korea Institute of Science and Technology (KIST). BALB/c nude mice (5.5 weeks old, 20-25 g, male) purchased from Nara Bio INC (Gyeonggi-do, Korea) were used as animal models. 1×10^7 MDA-MB-231 cells were inoculated into the left thigh of each of the mice (n=6) to construct establish a cancer animal model. 5 weeks after inoculation, experiments were conducted when cancer volumes were 250-300 mm^3.\n(§4) After administration of the drugs, noninvasive near-infrared fluorescence (NIRF) imaging data were obtained using an in vivo fluorescence imaging system (IVIS Luminar III) to assess the in vivo tumor accumulation of the prodrug (Al-ProD). The areas under the curves of the time-concentration curves (AUCs) corresponding to the near-infrared data were calculated using Origin 2020 software.\n(§5) Significance was indicated by *P < 0.05, **P < 0.01, ***P < 0.001."}, "[5]": {"system": "MDA-MB-231 cancer tissues", "test": "Tumor accumulation by NIRF imaging and CLSM in cancer animal models", "assay_type": "in vivo, BALB/c nude mice", "method": "as §3, §4\nAnimal models were sacrificed 12 h after injection of the drugs and organs (liver, lung, spleen, kidney, and heart) and cancer tissues were excised therefrom. The amounts of the drugs remaining in the major organs and cancer tissues were calculated via fluorescence imaging using IVIS Luminar III. The fluorescence intensities were quantified using the Living Image software (PerkinElmer, USA) and plotted.\nThe organs and cancer tissues excised from the animal models were sliced into 10 µm thick sections and treated with DAPI solution for 10 min to stain the cell nuclei blue. The fluorescence of DOX or DAPI from the sections was observed using a confocal laser scanning microscope (CLSM).\nas §5"}, "[6]": {"system": "MDA-MB-231 cancer tissues", "test": "Anticancer efficacy in MDA-MB-231 cancer animal models", "assay_type": "in vivo, BALB/c nude mice", "conditions": "for survival / cancer volume: equimolar to 3 mg/kg doxorubicin, tail vein; for cancer volume: FIG. 21, day not given", "method": "as §3, with “Specifically, all” for “All”\n(§6) Changes in body weight and cancer tissue volume of each group were measured and survivals were analyzed every two days from immediately after injection (day 0). The cancer tissue volume (V; mm^3) was calculated as 0.53 × largest diameter × (smallest diameter)^2. After 20 days, each group was euthanized. Major organs (liver, lung, spleen, kidney, and heart) and cancer tissues were excised and sliced into 10 µm thick sections for histological assays.\n(§7) Specifically, the tissues were fixed with 10% formalin, embedded in paraffin, and sectioned to a thickness of 10 µm. The tissue sections were stained with H&E, terminal deoxynucleotidyl transferase dUTP nick-end labeling (TUNEL), and 4,6-diamidino-2-phenylindole (DAPI, Sigma-Aldrich). Structural changes and toxicities in the tissue sections were evaluated using a ZEISS light microscope or fluorescence microscope.\nas §5"}, "[7]": {"test": "Toxicity (body weight, organ histology) in cancer animal models", "assay_type": "in vivo, BALB/c nude mice", "method": "as §3, with “Specifically, all” for “All”\nas §6, §7, §5"}, "[8]": {"test": "FIG. 16", "from_the_text": "Table printed on a drawing sheet, FIG. 16\nFirst reader's note: The table stands beside a plasma concentration (%) versus time plot; the AUC cells hold the value ± its error and no AUC unit is printed."}, "[9]": {"system": "breast cancer cells (MDA-MB-231)", "test": "Intracellular behavior of DOX by CLSM in breast cancer cells", "assay_type": "cell-based", "conditions": "MDA-MB-231, 2 µM, 48 h", "method": "(§8) 2×10^4 cancer cells (breast cancer cells (MDA-MB-231)) and normal cells (H9C2) were seeded in cell culture plates for confocal microscopy. As a control, MDA-MB-231 cells were treated and incubated with Cat-B-inhibitory siRNA for 24 h to inhibit the expression of cathepsin B (“MDA-MB-231 (+Cat-B inhibitor)”). […] Then, cells were washed with Dulbecco’s phosphate buffered saline (DPBS) to remove residual drug. Cells were treated with a cell fixative for 15 min and nuclei were stained blue by treatment with a DAPI solution for 10 min."}, "[10]": {"system": "rat cardiomyocytes (H9C2)", "test": "Intracellular behavior of DOX by CLSM in normal cells", "assay_type": "cell-based", "conditions": "H9C2, 2 µM, 48 h", "method": "as §8"}, "[11]": {"system": "breast cancer cells (MDA-MB-231)", "test": "Cytotoxicity (CCK-8) in breast cancer cells", "assay_type": "cell-based", "conditions": "MDA-MB231 cells, 48 h", "method": "(§9) An in vitro cell experiment was conducted using breast cancer cells (MDA-MB-231) and rat cardiomyocytes (H9C2) to determine the cancer cell-specific cytotoxicity of the albumin-prodrug conjugate (Al-ProD+HSA). Specifically, cells were cultured and maintained in Dulbecco’s modified Eagle’s medium (DMEM) supplemented with 10% fetal bovine serum (FBS) and 1% penicillin/streptomycin in a humid atmosphere at 5% CO2 and 95% air and at 37° C. […]\n(§10) Cancer cells (breast cancer cells (MDA-MB-231)) or normal cells (H9C2) were seeded at a density of 2×10^4/well in 96-well cell culture plates. […] Then, each well was treated with […] of CCK solution, followed by incubation for 30 min. The absorbance of each 96-well plate was analyzed using a microplate reader (VERSAmax™, Molecular Devices Corp., Sunnyvale, CA) at 450 nm."}, "[12]": {"system": "rat cardiomyocytes (H9C2)", "test": "Cytotoxicity (CCK-8) in normal cells", "assay_type": "cell-based", "conditions": "48 h", "method": "as §9, §10"}, "[13]": {"conditions": "equimolar to 3 mg/kg doxorubicin, tail vein"}}, "note": "No end group written: not given here. DOX = doxorubicin", "data": [{"molecule": "COc1cccc2c1C(=O)c1c(O)c3c(c(O)c1C2=O)CC(O)(C(=O)CO)CC3OC1CC(NC(=O)CNC(=O)C(CCCNC(=N)N)NC(=O)C(CCCNC(=N)N)NC(=O)C(Cc2ccccc2)NC(=O)CCOCCOCCNC(=O)CCN2C(=O)C=CC2=O)C(O)C(C)O1", "note": "(stereo not drawn) [Al-ProD]", "values": [{"measurement": "formation of conjugate with HSA (SDS-PAGE band shift to 50-75 kDa)", "setting": "[1]; room temperature, 1 h", "result": "formed a conjugate with each albumin"}, {"measurement": "time to completion of conjugate formation with HSA", "setting": "[1]; RP-HPLC, room temperature", "result": "≤ 5", "unit": "min"}, {"measurement": "conjugate formation with thiol-blocked HSA", "setting": "[1]; RP-HPLC, up to 60 min", "result": "not formed for 60 min"}, {"measurement": "formation of conjugate with blocked HSA (SDS-PAGE)", "setting": "[1]; thiol group of albumin blocked, 1 h", "result": "failed to form a conjugate with the blocked albumin"}, {"measurement": "formation of conjugate with MSA (SDS-PAGE band shift to 50-75 kDa)", "setting": "[2]", "result": "formed a conjugate with each albumin"}, {"measurement": "formation of conjugate with blocked MSA (SDS-PAGE)", "setting": "[2]; thiol group of albumin blocked", "result": "failed to form a conjugate with the blocked albumin"}, {"measurement": "formation of conjugate with BSA (SDS-PAGE band shift to 50-75 kDa)", "setting": "[3]", "result": "formed a conjugate with each albumin"}, {"measurement": "formation of conjugate with blocked BSA (SDS-PAGE)", "setting": "[3]; thiol group of albumin blocked", "result": "failed to form a conjugate with the blocked albumin"}, {"measurement": "extension of in vivo half-life", "setting": "[4]; by binding to albumin in vivo", "result": "at least 3 times"}, {"measurement": "time remained in vivo", "setting": "[4]; [13]", "result": "50 to 150", "unit": "h"}, {"measurement": "half-life", "setting": "[4]; male, BALB/c nude, mouse, in vivo, 3 mg/kg, read-out: half-life (T½ (h))", "result": "≥ 3", "unit": "h"}, {"measurement": "extension of in vivo residence time compared to the simple anticancer drug", "setting": "[4]; vs free DOX", "result": "at least 12 times"}, {"measurement": "increase of area under the curve (AUC) compared to free DOX", "setting": "[4]; vs free DOX 3 mg/kg", "result": 7, "unit": "fold"}, {"measurement": "accumulation / retention in cancer tissues (NIRF imaging)", "setting": "[5]; 0-72 h", "result": "a considerable quantity of DOX was retained in cancer tissues even after 72 h"}, {"measurement": "fluorescence from cancer tissues relative to free DOX group (NIRF in vivo)", "setting": "[5]; 0-72 h after intravenous administration", "result": "3.33-4.08 fold"}, {"measurement": "DOX in excised cancer tissue sections (CLSM)", "setting": "[5]; DAPI-stained sections", "result": "strong DOX fluorescence from cancer tissues"}, {"measurement": "DOX fluorescence from excised cancer tissues relative to free DOX group", "setting": "[5]; ex vivo, 12 h after intravenous administration", "result": "3.41-4.92 fold"}, {"measurement": "H&E and TUNEL staining of cancer tissues", "setting": "[6]; day 20", "result": "induced significant damage to and apoptosis of cancer tissues"}, {"measurement": "survival", "setting": "[6]", "result": "over 25 days"}, {"measurement": "cancer volume", "setting": "[6]", "result": "347.42 ± 25.9", "unit": "mm^3"}, {"measurement": "H&E staining of normal tissues (heart, lung, liver, kidney, and spleen)", "setting": "[7]; day 20", "result": "no significant damage"}, {"measurement": "change in body weight", "setting": "[7]; [13]", "result": "no significant changes"}, {"measurement": "T1/2", "setting": "[8]", "result": 3.1, "unit": "h"}]}, {"molecule": "COc1cccc2c1C(=O)c1c(O)c3c(c(O)c1C2=O)C[C@@](O)(C(=O)CO)C[C@@H]3O[C@H]1C[C@H](N)[C@H](O)[C@H](C)O1", "note": "[Free DOX]", "values": [{"measurement": "T1/2", "setting": "[8]", "result": 0.25, "unit": "h"}]}, {"molecule": "COc1cccc2c1C(=O)c1c(O)c3c(c(O)c1C2=O)C[C@@](O)(C(=O)CO)C[C@@H]3O[C@H]1C[C@H](N)[C@H](O)[C@H](C)O1", "note": "[free DOX, doxorubicin, reference compound]", "values": [{"measurement": "intracellular location of DOX fluorescence", "setting": "[9]", "result": "penetrated the nuclei of both cancer cells and normal cells"}, {"measurement": "intracellular location of DOX fluorescence", "setting": "[10]", "result": "penetrated the nuclei of both cancer cells and normal cells"}, {"measurement": "cytotoxicity", "setting": "[11]", "result": "significant cytotoxicities"}, {"measurement": "cytotoxicity", "setting": "[12]", "result": "significant cytotoxicities"}, {"measurement": "DOX in excised cancer tissue sections (CLSM)", "setting": "[5]; mouse, in vivo", "result": "a very small quantity"}, {"measurement": "day on which more than half of the animals had died", "setting": "[6]; death from systemic toxicity", "result": 15, "unit": "days"}, {"measurement": "survival", "setting": "[6]", "result": "≤ 18", "unit": "days"}, {"measurement": "cancer volume", "setting": "[6]", "result": "580.25 ± 139.92", "unit": "mm^3"}, {"measurement": "H&E staining of normal tissues (heart, lung, liver, kidney, and spleen)", "setting": "[7]; mouse, in vivo", "result": "significant structural abnormalities were observed in all tissues"}]}, {"molecule": "FRRG(SEQ ID NO: 1)-DOX (FRRG-{DOX}) [reference compound]", "values": [{"measurement": "formation of conjugate with HSA (SDS-PAGE band shift to 50-75 kDa)", "setting": "[1]; room temperature, 1 h", "result": "did not form conjugates with any albumin"}, {"measurement": "formation of conjugate with MSA (SDS-PAGE band shift to 50-75 kDa)", "setting": "[2]", "result": "did not form conjugates with any albumin"}, {"measurement": "formation of conjugate with BSA (SDS-PAGE band shift to 50-75 kDa)", "setting": "[3]", "result": "did not form conjugates with any albumin"}]}]}
